Values quoted from earlier work, collected in patent US6998494B2, “Preparation of trans-fused 3,3a,8,12b-tetrahydro-2h-dibenzo[3,4:6,7]cyclohepta[1,2-b]furan derivatives” (Janssen Pharmaceutica N.V., priority 2001, dated 2006).

Settings: dose of 300 mg/kg

Structure (SMILES): CNCC1CC2c3ccccc3Cc3ccccc3C2O1.O=C(O)C(=O)O (racemic) [(±)-3,3a,8,12b-tetrahydro-N-methyl-2H-dibenzo[3,4:6,7]-cyclohepta[1,2-b]furan-2-methanamine oxalic acid]
- activity as an antidepressant: inactive
